Key:
[1] = target: T1, p110δ/p85α (PI3K p110 delta) (Homo sapiens, UniProt O00329); test: PI3K isoform inhibition assay (fluorescence polarization PIP3 displacement; alternatively radiometric), p110 delta; type: biochemical; conditions: for IC50: PI3K p110 delta binding IC50; for IC50 p110 alpha/IC50 p110 delta: delta/alpha selectivity: ratio of p110 alpha IC50 to p110 delta IC50
T1 construct: purchased Upstate Group, Millipore; Dundee, UK
Procedure: PI3K Isoform Inhibition Assay (p110 Alpha, Beta, Gamma, Delta: α, β, γ, δ)
PI3K enzymatic activity was assayed by measuring the amount of product phosphatidylinositol 3,4,5-phosphate (PIP3) formed from substrate 4,5 phosphatidylinositol 4,5-phosphate (PIP2) using a fluorescence polarization displacement assay. The decrease in fluorescence polarization of a fluorescent PIP3 probe is measured as it is displaced from a PIP3-binding protein GRP-1 detector by PI3K-catalyzed product. […] The kinase reactions were initiated by the addition of 40 ng/mL p110α/p85α, 300 ng/mL p110β/p85α, 40 ng/mL p110γ, or 40 ng/mL p110δ/p85α (Upstate Group, Millipore; Dundee, UK), and 10 μM PIP2 (Echelon Biosciences) to the wells. […] After 60 minutes of incubation at room temperature to allow equilibration of labeled and unlabeled PIP3 binding, the parallel and perpendicular components of the fluorescence emissions from each sample were measured at an excitation wavelength of 530 nm and an emission wavelength of 590 nm using an Envision fluorescent plate reader with a rhodamine filter (PerkinElmer Life and Analytical Sciences; Wellesley, Mass.). The assay is capable of detecting 0.1-2.0 μM PIP3 product. The IC50 values were obtained by fitting the dose-dependent inhibition data to a 4-parameter equation using Assay Explorer software (MDL, San Ramon, Calif.).
The Formula I compound was serially diluted in 100% DMSO. The kinase reaction was incubated for 1 h at room temperature, and the reaction was terminated by the addition of PBS. IC50 values were subsequently determined using sigmoidal dose-response curve fit (variable slope).
HT baculovirus expression system (GIBCO/BRL), and then purified for use in biochemical assays. The four Class I PI 3-kinases are cloned into baculovirus vectors as follows: […]

[2] = test system: CD69 positive cells that are also CD20 positive, stimulated by anti-IgM, in human whole blood; test: CD69 whole blood assay (human whole blood, anti-IgM stimulated); type: cell-based; conditions: concentration decreasing by 50% the percent CD69 positive of CD20 positive cells stimulated by anti-IgM, 20 hours, read-out: IC50 in the CD69 Whole Blood Assay
Procedure: Human blood is obtained from healthy volunteers, with the following restrictions: 1 week drug-free, non-smokers. Blood (approximately 20 mls to test 8 compounds) is collected by venipuncture into Vacutainer tubes with sodium heparin.
Solutions of Formula I compounds at 1000 or 2000 μM in PBS (20×), are diluted by three-fold serial dilutions in 10% DMSO in PBS for a nine point dose-response curve. An aliquot of 5.5 μl of each compound is added in duplicate to a 2 ml 96-well plate; 5.5 μl of 10% DMSO in PBS is added as control and no-stimulus wells. Human whole blood—HWB (100 μl) is added to each well. After mixing the plates are incubated at 37° C., 5% CO2, 100% humidity for 30 minutes. Goat F(ab′)2 anti-human IgM (10 μl of a […] solution, 50 μg/ml final) is added to each well (except the no-stimulus wells) with mixing and the plates are incubated for an additional 20 hours. At the end of the 20 hour incubation, samples are incubated with florescent labeled antibodies for 30 minutes, at 37° C., 5% CO2, 100% humidity. Include induced control, unstained and single stains for compensation adjustments and initial voltage settings. Samples are then lysed with Pharmingen Lyse according to the manufacturer's instructions. Samples are then transferred to a 96 well plate suitable to be run on the AMS 96 well system on the BD Calibur FACs machine. Data acquired and Mean Fluorescence Intensity values were obtained using Cell Quest Software. Results are initially analyzed by FACS analysis software (Flow Jo). […] The IC50 values are calculated by Activityl)ase using Xlfit version 3, equation 201.

T1 sequence (O00329 whole entry, canonical isoform): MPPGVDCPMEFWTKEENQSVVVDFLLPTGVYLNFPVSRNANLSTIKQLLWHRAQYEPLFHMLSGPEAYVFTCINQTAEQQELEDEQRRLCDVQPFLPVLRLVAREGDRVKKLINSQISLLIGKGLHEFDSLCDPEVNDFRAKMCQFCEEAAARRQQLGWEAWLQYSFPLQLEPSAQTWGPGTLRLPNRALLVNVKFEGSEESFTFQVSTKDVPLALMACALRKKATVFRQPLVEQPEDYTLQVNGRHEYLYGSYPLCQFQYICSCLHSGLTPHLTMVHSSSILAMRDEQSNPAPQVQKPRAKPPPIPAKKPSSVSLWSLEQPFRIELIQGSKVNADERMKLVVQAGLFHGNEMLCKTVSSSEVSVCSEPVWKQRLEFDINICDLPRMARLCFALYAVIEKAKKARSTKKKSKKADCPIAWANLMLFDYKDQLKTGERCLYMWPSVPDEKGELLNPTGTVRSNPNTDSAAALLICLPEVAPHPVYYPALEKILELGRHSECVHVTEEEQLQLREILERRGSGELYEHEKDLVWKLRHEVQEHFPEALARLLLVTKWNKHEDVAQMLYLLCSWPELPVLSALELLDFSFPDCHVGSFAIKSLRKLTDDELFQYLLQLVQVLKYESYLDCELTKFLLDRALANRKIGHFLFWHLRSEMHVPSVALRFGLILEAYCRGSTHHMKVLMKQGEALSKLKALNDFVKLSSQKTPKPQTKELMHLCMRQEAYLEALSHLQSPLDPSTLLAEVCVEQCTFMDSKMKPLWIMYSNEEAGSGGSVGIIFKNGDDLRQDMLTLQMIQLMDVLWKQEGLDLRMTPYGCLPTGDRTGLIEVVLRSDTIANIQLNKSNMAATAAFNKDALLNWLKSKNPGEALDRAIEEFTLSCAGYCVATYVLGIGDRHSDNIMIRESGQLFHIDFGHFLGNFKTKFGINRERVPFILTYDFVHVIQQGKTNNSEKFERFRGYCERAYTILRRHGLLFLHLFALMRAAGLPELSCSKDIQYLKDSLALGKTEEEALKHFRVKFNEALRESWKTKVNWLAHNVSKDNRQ
T1 sequence (P27986 whole entry partner, canonical isoform): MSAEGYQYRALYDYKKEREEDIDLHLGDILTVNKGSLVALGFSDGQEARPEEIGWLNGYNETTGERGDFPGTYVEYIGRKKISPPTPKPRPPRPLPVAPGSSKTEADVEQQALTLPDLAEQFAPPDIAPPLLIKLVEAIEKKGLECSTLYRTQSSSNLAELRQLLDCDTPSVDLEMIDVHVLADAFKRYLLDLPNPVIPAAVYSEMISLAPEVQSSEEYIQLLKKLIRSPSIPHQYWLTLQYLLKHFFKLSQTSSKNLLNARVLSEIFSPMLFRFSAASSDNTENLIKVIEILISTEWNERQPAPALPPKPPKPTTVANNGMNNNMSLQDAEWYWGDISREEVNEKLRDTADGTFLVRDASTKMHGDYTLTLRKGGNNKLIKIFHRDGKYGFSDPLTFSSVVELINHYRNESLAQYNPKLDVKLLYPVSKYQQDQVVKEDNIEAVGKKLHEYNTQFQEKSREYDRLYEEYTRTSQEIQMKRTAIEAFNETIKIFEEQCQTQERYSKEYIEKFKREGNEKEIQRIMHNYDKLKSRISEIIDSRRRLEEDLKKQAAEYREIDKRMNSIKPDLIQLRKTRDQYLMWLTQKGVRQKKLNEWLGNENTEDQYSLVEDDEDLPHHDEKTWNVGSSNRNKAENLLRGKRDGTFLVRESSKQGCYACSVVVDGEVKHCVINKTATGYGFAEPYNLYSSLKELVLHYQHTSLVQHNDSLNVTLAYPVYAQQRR

SMILES | IC50 [1] | IC50 p110 alpha/IC50 p110 delta [1] | IC50 [2]
COC(C)(C)C1CCN(Cc2nc3c(N4CCOCC4)nc(-c4c(C)oc5ccccc45)nc3n2C)CC1 [Example 200, 4-(8-((4-(2-methoxypropan-2-yl)piperidin-1-yl)methyl)-9-methyl-2-(2-methylbenzofuran-3-yl)-9H-purin-6-yl)morpholine] | 22.2 nM | 54 | –
CCc1nc2ccccc2n1-c1nc(N2CCOCC2)c2nc(CC3CN(C4CCS(=O)(=O)CC4)C3)n(C)c2n1 [Example 501, 4-(2-(2-ethyl-1H-benzo[d]imidazol-1-yl)-9-methyl-8-((1-(tetrahydro-2H-(1,1-dioxo)-thiopyran-4-yl)azetidin-3-yl)methyl)-9H-purin-6-yl)morpholine] | 0.589 nM | 140 | –
COc1cccc(-c2nc3c(N4CCOCC4)nc(-n4c(C(C)C)nc5ccccc54)nc3n2C)c1 [Example 683, 4-(2-(2-isopropyl-1H-benzo[d]imidazol-1-yl)-8-(3-methoxyphenyl)-9-methyl-9H-purin-6-yl)morpholine] | 31.7 nM | 23 | –
Cc1nc2ccccc2n1-c1nc(N2CCOCC2)c2nc(CN3CCN(C(C)(C)C(N)=O)CC3)n(C)c2n1 [Example 406, 2-methyl-2-(4-((9-methyl-2-(2-methyl-1H-benzo[d]imidazol-1-yl)-6-morpholino-9H-purin-8-yl)methyl)piperazin-1-yl)propanamide] | – | – | 20.6 nM
Cc1c(CN2CCN(C(C)(C)C(N)=O)CC2)sc2c(N3CCOCC3)nc(-c3cncc4[nH]ccc34)nc12 [Example 112, 2-methyl-2-(4-((7-methyl-4-morpholino-2-(1H-pyrrolo[2,3-c]pyridin-4-yl)thieno[3,2-d]pyrimidin-6-yl)methyl)piperazin-1-yl)propanamide] | 1.8 nM | 29 | –
Cn1c(CN2CCC(C(C)(C)O)CC2)nc2c(N3CCOCC3)nc(-c3n[nH]c4ccccc34)nc21 [Example 162, 2-(1-((2-(1H-indazol-3-yl)-9-methyl-6-morpholino-9H-purin-8-yl)methyl)piperidin-4-yl)propan-2-ol] | 14.6 nM | 191 | –
CCc1nc2ccccc2n1-c1nc(N2CCOCC2)c2nc(CN3CCC(C4COC4)CC3)n(C)c2n1 [Example 314, 4-(2-(2-ethyl-1H-benzo[d]imidazol-1-yl)-9-methyl-8-((4-(oxetan-3-yl)piperidin-1-yl)methyl)-9H-purin-6-yl)morpholine] | – | – | 44.1 nM
CCc1nc2ccccc2n1-c1nc(N2CCOCC2)c2nc(CCN3CCOCC3(C)C)n(C)c2n1 [Example 535, 4-(2-(2-(2-ethyl-1H-benzo[d]imidazol-1-yl)-9-methyl-6-morpholino-9H-purin-8-yl)ethyl)-3,3-dimethylmorpholine] | 9.9 nM | 49 | –
CCc1nc2ccccc2n1-c1nc(N2CCOCC2)c2nc(CN3CC([C@@H](O)C(C)C)C3)n(C)c2n1 [Example 388, (S)-1-(1-((2-(2-ethyl-1H-benzo[d]imidazol-1-yl)-9-methyl-6-morpholino-9H-purin-8-yl)methyl)azetidin-3-yl)-2-methylpropan-1-ol] | – | – | 51.1 nM
CC(C)(C(N)=O)N1CCN(Cc2nc3c(N4CCOCC4)nc(-c4cncc5[nH]ccc45)nc3s2)CC1 [Example 131, 2-methyl-2-(4-((7-morpholino-5-(1H-pyrrolo[2,3-c]pyridin-4-yl)thiazolo[5,4-d]pyrimidin-2-yl)methyl)piperazin-1-yl)propanamide] | 1.3 nM | 32 | –
CN(C)C1CCN(Cc2cc3nc(-n4ccc5cnccc54)nc(N4CCOCC4)c3s2)CC1 [Example 149, N,N-dimethyl-1-((4-morpholino-2-(1H-pyrrolo[3,2-c]pyridin-1-yl)thieno[3,2-d]pyrimidin-6-yl)methyl)piperidin-4-amine] | 6.9 nM | 30 | –
c1cc(-c2nc(N3CCOCC3)c3sc(CN4CCC(N5CCOCC5)CC4)cc3n2)c2ccncc2c1 [Example 101, 4-(1-((2-(isoquinolin-5-yl)-4-morpholinothieno[3,2-d]pyrimidin-6-yl)methyl)piperidin-4-yl)morpholine] | 101 nM | 53 | –
Cc1oc2ccccc2c1-c1nc(N2CCOCC2)c2nc(CN3CCN(C(C)(C)C(N)=O)CC3)sc2n1 [Example 211, 2-methyl-2-(4-((5-(2-methylbenzofuran-3-yl)-7-morpholinothiazolo[5,4-d]pyrimidin-2-yl)methyl)piperazin-1-yl)propanamide] | 9.7 nM | >300 | –
CC(C)(C(N)=O)N1CCN(Cc2nc3nc(-c4cccc5nccn45)nc(N4CCOCC4)c3s2)CC1 [Example 248, 2-(4-((5-(imidazo[1,2-a]pyridin-5-yl)-7-morpholinothiazolo[4,5-d]pyrimidin-2-yl)methyl)piperazin-1-yl)-2-methylpropanamide] | 42.9 nM | 35 | –
CCc1nc2ccccc2n1-c1nc(N2CCOCC2)c2nc(CN3CCN(C(C)(C)CO)CC3)[nH]c2n1 [Example 489, 2-(4-((2-(2-ethyl-1H-benzo[d]imidazol-1-yl)-6-morpholino-9H-purin-8-yl)methyl)piperazin-1-yl)-2-methylpropan-1-ol] | 1.37 nM | 157 | –
Cn1c(CN2CC(C3CCOCC3)C2)nc2c(N3CCOCC3)nc(-n3c(C4CC4)nc4ccccc43)nc21 [Example 499, 4-(2-(2-cyclopropyl-1H-benzo[d]imidazol-1-yl)-9-methyl-8-((3-(tetrahydro-2H-pyran-4-yl)azetidin-1-yl)methyl)-9H-purin-6-yl)morpholine] | 6.3 nM | 75 | –
Cn1c(CN2CCC(C(C)(C)O)CC2)nc2c(N3CCOCC3)nc(-c3cnc(N)c4ccccc34)nc21 [Example 115, 2-(1-((2-(1-aminoisoquinolin-4-yl)-9-methyl-6-morpholino-9H-purin-8-yl)methyl)piperidin-4-yl)propan-2-ol] | 7.2 nM | 34 | –
CCc1nc2ccccc2n1-c1nc(N2CCOCC2)c2nc(CN3CCC(C(C)(C)O)CC3)[nH]c2n1 [Example 701, 2-(1-((2-(2-ethyl-1H-benzo[d]imidazol-1-yl)-6-morpholino-9H-purin-8-yl)methyl)piperidin-4-yl)propan-2-ol] | – | 50 | –
CC(C)c1nc2ccccc2n1-c1nc(N2CCOCC2)c2nc(-c3cccnc3)n(C)c2n1 [Example 676, 4-(2-(2-isopropyl-1H-benzo[d]imidazol-1-yl)-9-methyl-8-(pyridin-3-yl)-9H-purin-6-yl)morpholine] | 13.6 nM | 14 | –
CCc1nc2ccccc2n1-c1nc(N2CCOCC2)c2nc(CN3C[C@@H]4C[C@H]3CN4C(C)(C)CO)n(C)c2n1 [Example 521, 2-((1S,4S)-5-((2-(2-ethyl-1H-benzo[d]imidazol-1-yl)-9-methyl-6-morpholino-9H-purin-8-yl)methyl)-2,5-diazabicyclo[2.2.1]heptan-2-yl)-2-methylpropan-1-ol] | 1.45 nM | 150 | –
CCc1nc2ccccc2n1-c1nc(N2CCOCC2)c2nc(CC(=O)N3CCC(C(C)(C)O)CC3)sc2n1 [Example 549, 2-(5-(2-ethyl-1H-benzo[d]imidazol-1-yl)-7-morpholinothiazolo[5,4-d]pyrimidin-2-yl)-1-(4-(2-hydroxypropan-2-yl)piperidin-1-yl)ethanone] | 9.4 nM | 14 | –

— patent publication US8394796B2, “Bicyclic pyrimidine PI3K inhibitor compounds selective for P110 delta, and methods of use” (Genentech, Inc., priority 2009, dated 2013)
